Experimental data taken from the supplement of paper PMC3493320.

tested on: NCI-H295R; assay: IC50 (antiproliferative, ATP content); conditions: 48 h
Procedure, shortened: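 Following overnight culture of adrenocortical carcinoma cells (1500 per well) in 1536-well plates with serum-free ITS-supplemented DMEM, library compounds were pin-transferred at 8 final concentrations from 0.6 nM to 46 µM. Incubation lasted 48 h at 37 °C, 5% CO2, and the CellTiter-Glo signal was read after 20 min at room temperature. Data were fitted with a four-parameter logistic model. Each IC50 came from that fit after normalisation to vehicle and positive-control wells, and compounds without a concentration response were reported as above the top dose.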

Row | IC50 | Compound
1 | > 46 µM | CCCc1nc(C(C)(C)O)c(C(=O)OCc2oc(=O)oc2C)n1Cc1ccc(-c2ccccc2-c2nnn[nH]2)cc1
2 | > 46 µM | CC1(C)[C@@H](OC(=O)CCC(=O)[O-])CC[C@]2(C)[C@H]3C(=O)C=C4[C@@H]5C[C@@](C)(C(=O)[O-])CC[C@]5(C)CC[C@@]4(C)[C@]3(C)CC[C@@H]12.[Na+].[Na+]
3 | > 46 µM | N=C(N)N/N=C1/C=C/C(C=C1)=N\NC(N)=S
4 | > 46 µM | COc1ccc(C(Cl)=C(c2ccc(OC)cc2)c2ccc(OC)cc2)cc1
5 | > 46 µM | C=O
6 | > 46 µM | C=CC1=C(C(=O)O)N2C(=O)[C@@H](NC(=O)C(=NOCC(=O)O)c3csc(N)n3)[C@H]2SC1
7 | > 46 µM | COc3ccccc3N2CCN(CCCN\C1=C\C(=O)N(C)C(=O)N1C)CC2
8 | > 46 µM | CCCCN1CCCC1C(=O)Nc1c(C)cc(C)cc1C (stereo not drawn)
9 | > 46 µM | CNc1c2c(nn1C)CCCC2
10 | > 46 µM | O=[C@@]([O-])[C@@H](CC3=CC=CC=C3)CC(N1C[C@@]2([H])[C@@](CCCC2)([H])C1)=O.O=[C@@]([O-])[C@@H](CC6=CC=CC=C6)CC(N4C[C@@]5([H])[C@@](CCCC5)([H])C4)=O.O.O.[Ca+2]
11 | > 46 µM | C[C@@H]1[C@H](O)[C@@H](C)/C=C/C=C/C=C/C=C/C=C/C=C/C=C/[C@H](O[C@@H]2O[C@H](C)[C@@H](O)[C@H](N)[C@@H]2O)C[C@@H]2O[C@](O)(C[C@@H](O)C[C@@H](O)[C@H](O)CC[C@@H](O)C[C@@H](O)CC(=O)O[C@H]1C)C[C@H](O)[C@H]2C(=O)O
12 | > 46 µM | O=C(O)CCc1nc2ccccc2[nH]1
13 | > 46 µM | CC(=O)OCC(=O)[C@@]1(O)[C@H](C)C[C@H]2[C@@H]3CCC4=CC(=O)C=C[C@]4(C)[C@@]3(F)[C@@H](O)C[C@@]21C
14 | > 46 µM | Cl.NCc1ccc(S(N)(=O)=O)cc1
15 | > 46 µM | CN(C/C=C/c1ccccc1)Cc1cccc2ccccc12.Cl
16 | > 46 µM | Cc1nc(Nc2ncc(C(=O)Nc3c(C)cccc3Cl)s2)cc(N2CCN(CCO)CC2)n1
17 | > 46 µM | CN1CCOC(c2ccccc2)c2ccccc2C1.Cl (stereo not drawn)
18 | > 46 µM | CN1CCCN=C1COC(=O)C(O)(c1ccccc1)C1CCCCC1.Cl (stereo not drawn)
19 | > 46 µM | O=C([O-])[C@H](O)[C@@H](O)[C@H](O)[C@H](O)CO.[Na+]
20 | > 46 µM | CCOc1ccc(NC(=S)Nc2ccc(OCC)cc2)cc1
21 | > 46 µM | N=C(N)NCCCC[C@@H]1NC(=O)CCSSC[C@@H](C(N)=O)NC(=O)[C@@H]2CCCN2C(=O)[C@H](Cc2c[nH]c3ccccc23)NC(=O)[C@H](CC(=O)O)NC(=O)CNC1=O
22 | > 46 µM | CC1CC(OC(=O)C(O)c2ccccc2)CC(C)(C)N1C.Cl (stereo not drawn)
23 | > 46 µM | Cc1[nH]c(=O)c(C#N)cc1-c1ccncc1
24 | > 46 µM | Cc1nc[nH]c1CN1CCc2c(c3ccccc3n2C)C1=O.Cl
25 | > 46 µM | CC(C)Cc1ccc(CC(=O)O)cc1

Row | IC50 | Compound
26 | > 46 µM | CNC[C@H](O)c1ccc(O)c(O)c1
27 | > 46 µM | CCc1cn([C@H]2C[C@H](O)[C@@H](CO)O2)c(=O)[nH]c1=O
28 | > 46 µM | C[C@@](Cc1ccc(O)c(O)c1)(NN)C(=O)O
29 | > 46 µM | Cc1cc2c(OCC(CNC(C)(C)C)OC(=O)c3ccccc3)cccc2[nH]1 (stereo not drawn)
30 | > 46 µM | CC(=O)N(CC(O)CN(C(C)=O)c1c(I)c(C(=O)NCC(O)CO)c(I)c(C(=O)NCC(O)CO)c1I)c1c(I)c(C(=O)NCC(O)CO)c(I)c(C(=O)NCC(O)CO)c1I (stereo not drawn)
31 | > 46 µM | Cc1cccc(C)c1NC(=O)CN(CC(=O)O)CC(=O)O
32 | > 46 µM | CN(C)CCC(O)(c1ccccc1)c1ccccc1Cl (stereo not drawn)
33 | > 46 µM | CC(C)n1c(/C=C/[C@@H](O)C[C@@H](O)CC(=O)[O-])c(-c2ccc(F)cc2)c2ccccc21.[Na+]
34 | > 46 µM | Cc1cccc(C)c1NC(=O)CN1CCN(CCCC(c2ccc(F)cc2)c2ccc(F)cc2)CC1
35 | > 46 µM | CN1[C@@H]2CC[C@H]1C[C@@H](OC(=O)c1c[nH]c3ccccc13)C2
36 | > 46 µM | CC(C[N+](C)(C)C)OC(N)=O.[Cl-] (stereo not drawn)
37 | > 46 µM | CCC(=O)c1ccc2c(c1)N(CCCN(C)C)c1ccccc1S2.Cl
38 | > 46 µM | CCn1cc(C(=O)O)c(=O)c2cc(F)c(N3CCNC(C)C3)c(F)c21.Cl (stereo not drawn)
39 | > 46 µM | O=C1[C@]([C@](CC4)([H])[C@@]3([H])[C@@](C1)(C)[C@@](CC3)(O)[C@@](CO)=O)([H])[C@](C=C2)(C)C4=CC2=O
40 | > 46 µM | O=C1C(O)=C(O)C(=O)C(O)=C1O
41 | > 46 µM | CCOC(=O)c1ncn2c1CN(C)C(=O)c1cc(F)ccc1-2
42 | > 46 µM | Cc1cc(C)nc(NS(=O)(=O)c2ccc(N)cc2)n1
43 | > 46 µM | O=c1[nH]c(=O)n([C@H]2C[C@H](O)[C@@H](CO)O2)cc1C(F)(F)F
44 | > 46 µM | CO/N=C(\C(=O)N[C@@H]1C(=O)N2C(C(=O)O)=C(CSc3cnns3)CS[C@H]12)c1csc(N)n1.Cl
45 | > 46 µM | CCCOC(C(=O)OC1CCN(C)CC1)(c1ccccc1)c1ccccc1.Cl
46 | > 46 µM | CN(c1nccc(=O)[nH]1)C1CCN(c2nc3ccccc3n2Cc2ccc(F)cc2)CC1
47 | > 46 µM | OCC(CO)N[C@H]1C[C@](O)(CO)[C@@H](O)[C@H](O)[C@H]1O
48 | > 46 µM | NC(CO)(CO)CO
49 | > 46 µM | C=C1[C@@H]2CC[C@@H](C2)C1(C)C
50 | > 46 µM | O=C(O)CCCC/C=C(\c1ccccc1)c1cccnc1

Row | IC50 | Compound
51 | > 46 µM | COC(=O)CCC(=O)CN.Cl
52 | > 46 µM | CC(C)Cn1cnc2c(N)nc3ccccc3c21
53 | > 46 µM | Cc1ccc(S(=O)(=O)NC(=O)NN2CCCCCC2)cc1
54 | > 46 µM | O=[C@@](OC)[C@H]([C@H]3OC)[C@@]2([H])C[C@](N4C[C@]([H])2C[C@H]3OC(C=CC6=CC(OC)=C(OC)C(OC)=C6)=O)([H])C1=C(CC4)C(C=C5)=C(C=C5OC)N1
55 | > 46 µM | CO/N=C(\C(=O)N[C@@H]1C(=O)N2C(C(=O)O)=C(CSc3nnnn3C)CS[C@H]12)c1csc(N)n1.CO/N=C(\C(=O)N[C@@H]1C(=O)N2C(C(=O)O)=C(CSc3nnnn3C)CS[C@H]12)c1csc(N)n1.Cl
56 | > 46 µM | COc1c2occc2cc2ccc(=O)oc12
57 | > 46 µM | OC[C@H]1OC([S][Au])[C@H](O)[C@@H](O)[C@@H]1O (stereo partly drawn)
58 | > 46 µM | NCCc1cc[nH]n1
59 | > 46 µM | CC1CCCC(C)N1NC(=O)c1ccc(Cl)c(S(N)(=O)=O)c1 (stereo not drawn)
60 | > 46 µM | CCn1cc(C(=O)O)c(=O)c2cnc(N3CCCC3)nc21
61 | > 46 µM | CC1C(=O)CC2C3(C)CCC2(C(C)C(=O)O)C(=O)C13 (stereo not drawn)
62 | > 46 µM | CN1C2=CC(=O)C(=NNC(N)=O)C=C2CC1S(=O)(=O)[O-].[Na+] (stereo not drawn)
63 | > 46 µM | CCCCC(CC)COC(=O)C=Cc1ccc(OC)cc1 (stereo not drawn)
64 | > 46 µM | CCCCC[C@H](O)/C=C/[C@H]1[C@H](O)CC(=O)[C@@H]1C/C=C\CCCC(=O)O
65 | > 46 µM | CCCCCCCCCCOCC(O)CN.Cl (stereo not drawn)
66 | > 46 µM | [H][C@@]1(CC\C3=C(C4=CC=CS4)/C2=CC=CS2)[N@+](CCCC1)(C3)C.[Br-]
67 | > 46 µM | O=C(NCC(O)CO)c1c(I)c(C(=O)NCC(O)CO)c(I)c(N(CCO)C(=O)CO)c1I (stereo not drawn)
68 | > 46 µM | COc1ccc2cc(CCC(C)=O)ccc2c1
69 | > 46 µM | Nc1ccc(S(=O)(=O)Nc2ccccc2)cc1
70 | > 46 µM | Cc1cc(C(=O)NNCc2ccccc2)no1
71 | > 46 µM | COc1ccc(OC)c(C(O)CNC(=O)CN)c1.Cl (stereo not drawn)
72 | > 46 µM | Cl.OC(CCN1CCCCC1)(c1ccccc1)C1CCCCC1 (stereo not drawn)
73 | > 46 µM | Cl.Cl.c1ccc(CNCCNCc2ccccc2)cc1

Row | Compound | IC50
74 | CC(C)CCON=O | > 46 µM
75 | Oc1ccc2c3c1O[C@H]1[C@@H](O)CC[C@@]4(O)[C@@H](C2)N(CC2CCC2)CC[C@]314 | > 46 µM
76 | O=c1ccc2cc(O[C@@H]3O[C@H](CO)[C@@H](O)[C@H](O)[C@H]3O)c(O)cc2o1 | > 46 µM
77 | O=C1OC2(c3cc(Br)c([O-])cc3Oc3c2cc(Br)c([O-])[c]3[Hg][OH])c2ccccc21.[Na+].[Na+] (stereo not drawn) | > 46 µM
78 | C[C@]12CCC(=O)C=C1C=C[C@@H]1[C@@H]2CC[C@@]2(C)[C@H]1CC[C@@]2(O)CCC(=O)[O-].[K+] | > 46 µM
79 | CNC(C)C(O)c1ccc(O)cc1.Cl (stereo not drawn) | > 46 µM
80 | CCCCCC(C)N.CCCCCC(C)N.O=S(=O)(O)O (stereo not drawn) | > 46 µM
81 | CC[C@H](C)CCCCC(=O)N[C@@H](CCN)C(=O)N[C@H](C(=O)N[C@@H](CCN)C(=O)N[C@H]1CCNC(=O)[C@H]([C@@H](C)O)NC(=O)[C@H](CCN)NC(=O)[C@H](CCN)NC(=O)[C@H](CC(C)C)NC(=O)[C@@H](CC(C)C)NC(=O)[C@H](CCN)NC1=O)[C@@H](C)O.O=S(=O)(O)O | > 46 µM
82 | CCCC[N@@+]1(C)[C@@H]2C[C@@H](OC(=O)[C@H](CO)c3ccccc3)C[C@H]1[C@@H]1O[C@@H]12.[Br-] | > 46 µM
83 | COC(=O)c1cncn1C(C)c1ccccc1.Cl (stereo not drawn) | > 46 µM
84 | C[N+](C)(C)CC(=O)O.[Cl-] | > 46 µM
85 | O=C1c2ccccc2C(=O)c2ccccc21 | > 46 µM
86 | CCC(C)(C)c1ccc(O)cc1 | > 46 µM
87 | CC(C)(C)NCC(O)c1cc(Cl)c(N)c(C(F)(F)F)c1.Cl (stereo not drawn) | > 46 µM
88 | CC(=O)OCC1=C(C(=O)O)N2C(=O)[C@@H](N)[C@H]2SC1 | > 46 µM
89 | COS(=O)(=O)[O-].C[N+]1(C)CCCCC1COC(=O)C(O)(c1ccccc1)c1ccccc1 (stereo not drawn) | > 46 µM
90 | O=P1(NCCCl)OCCCN1CCCl (stereo not drawn) | > 46 µM
91 | CN[C@@H]1[C@@H](O)[C@@H](O[C@@H]2[C@@H](O)[C@H](O[C@H]3O[C@H](CN)[C@@H](O)[C@H](O)[C@H]3O)[C@@H](N)C[C@H]2NC(=O)C(O)CN)OC[C@]1(C)O.O=S(=O)(O)O (stereo partly drawn) | > 46 µM
92 | CCCCCCC[N+](CC)(CC)CCCCc1ccc(Cl)cc1.Cc1ccc(S(=O)(=O)[O-])cc1 | > 46 µM
93 | COc1ccc(C(=O)N2CCCC2=O)cc1 | > 46 µM
